Measured values taken from PubChem BioAssay AID1949 (Southern Research Institute, 2009).
≈ marks a conversion by molar mass, not a printed value. Results filed as inconclusive are left out. Calls of active or inactive are those of the source. How the calls were made is not given here.

System: M. tuberculosis H37Rv growth inhibition
Assay: Mycobacterium tuberculosis H37Rv growth inhibition, cell based, confirmatory dose response (AID 1949);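 further: bacteria grown 7 days with compound before Alamar blue readout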

Compound | IC50
O=C(Nc1nnc(-c2ccccc2Cl)o1)c1ccco1 | 1.83 µg/mL (≈ 6.32 µM)
COC(=O)CSc1nnc(-c2ccccc2C)o1 | 4.38 µg/mL (≈ 16.6 µM)
CCCCNCCCCOc1ccc2ccccc2c1Br | 1.63 µg/mL (≈ 4.65 µM)
O=C(CSc1ccccc1)Nc1ccc(-c2nc3ccccc3c(=O)o2)cc1 | 0.47 µg/mL (≈ 1.21 µM)
Cc1cccc(-n2nc([N+](=O)[O-])c(=NCCC3=CCCCC3)n2O)c1 | 3.62 µg/mL (≈ 10.5 µM)
CCOC(=O)COc1ccc2c3c(c(=O)oc2c1C)CCC3 | > 50 µg/mL (inactive)
Cc1ccc([N+](=O)[O-])cc1NC(=O)c1cc(Cl)ccc1O | 29.7 µg/mL (≈ 96.8 µM)
O=C(Nc1ccc(OC(F)(F)C(F)F)cc1)Nc1cccc(Cl)c1 | 0.75 µg/mL (≈ 2.07 µM)
CCOc1ccc(OCc2ccc(C(=O)Nc3ccc(Cl)cn3)o2)cc1 | 19.9 µg/mL (≈ 53.5 µM)
Cc1ccc(C(=O)NC(=S)Nc2cccc(NC(=O)c3cccs3)c2)c(C)c1 | 6.96 µg/mL (≈ 17 µM)
CC1=CC(C)(C)N2C(=O)C(=O)c3cc(OC(=O)c4ccccc4)cc1c32 | > 50 µg/mL (inactive)
Cc1ccc(-c2nnc(N3CCN(C(=O)c4ccc(Cl)cc4)CC3)c3ccccc23)cc1 | 3.65 µg/mL (≈ 8.24 µM)
O=Cc1cc(COc2ccc(F)cc2Cl)cs1 | 3.16 µg/mL (≈ 11.7 µM)
COc1ccc(C(=O)N=Nc2c(O)[nH]c3ccc(Br)cc23)cc1 | 19.9 µg/mL (≈ 53.1 µM)
Oc1ccc(Cl)cc1CNc1nc2ccccc2[nH]1 | 12.1 µg/mL (≈ 44.3 µM)
O=C(Nc1cccc2cccnc12)c1ccc([N+](=O)[O-])o1 | 8.91 µg/mL (≈ 31.5 µM)
O=c1c(Cl)c(Cl)cnn1Cc1ccccc1Cl | 9.65 µg/mL (≈ 33.3 µM)
CCCCN1C(=O)C(=O)c2cc(Br)ccc21 | 9.17 µg/mL (≈ 32.5 µM)
CC(C)Oc1ccc(NC(=O)CSc2nc3ccccc3s2)cc1 | 6.12 µg/mL (≈ 17.1 µM)

Compound | IC50
Cc1ccc(C)c(N2C(=O)c3cccc4c([N+](=O)[O-])ccc(c34)C2=O)c1 | 0.76 µg/mL (≈ 2.19 µM)
CC(NC(=O)c1ccc(Br)cc1)c1ccc2c(c1)OCCO2 (configuration not stated) | 5.81 µg/mL (≈ 16 µM)
CCC(C)c1ccccc1OCC(=O)Nc1cccc(-c2nnc(-c3ccco3)o2)c1 (configuration not stated) | 8.07 µg/mL (≈ 19.3 µM)
CCNc1nc(NCC)nc(SCCOc2ccc(Br)cc2)n1 | 4.24 µg/mL (≈ 10.6 µM)
CC(C)CC(=O)NC(c1ccc(Cl)cc1Cl)c1c(O)ccc2ccccc12 (configuration not stated) | 1.72 µg/mL (≈ 4.28 µM)
Cc1ccccc1OC(=O)c1sc2ccccc2c1Cl | 2.05 µg/mL (≈ 6.77 µM)
O=C(Nc1ccc2c(c1)OCCO2)NC12CC3CC(CC(C3)C1)C2 | 4.52 µg/mL (≈ 13.8 µM)
CCc1cc(C(=O)OC)c(NC(=S)NCc2ccc(Cl)c(Cl)c2)s1 | 0.14 µg/mL (≈ 0.347 µM)
O=C(COc1ccc2c(-c3ccccc3)cc(=O)oc2c1)OC1CCCCC1 | < 0.1 µg/mL
COC(=O)C1=C(C)N(c2ccc(F)c(Cl)c2)C(=O)C1 | 13.5 µg/mL (≈ 47.4 µM)
Cc1cccc(NC(=S)NC(=O)CC23CC4CC(CC(C4)C2)C3)c1 | 2.89 µg/mL (≈ 8.44 µM)
COc1cc(C(=O)Oc2ccc3c(c2)CCCC3)cc(OC)c1OC | > 50 µg/mL (inactive)
CCc1nc2sc(C(=O)c3ccccc3)c(N)c2cc1C | > 50 µg/mL (inactive)
CCN1C(=O)c2cccc3cc([N+](=O)[O-])cc(c23)C1=O | < 0.1 µg/mL
CC1CCc2c(sc3nc4c5ccccc5c(N5CCN(CCO)CC5)nn4c(=O)c23)C1 (configuration not stated) | 4.86 µg/mL (≈ 10.8 µM)
CCC(C)c1ccc(O)c(NC(=S)NC(=O)c2ccc(-c3ccc(Cl)cc3)o2)c1 (configuration not stated) | < 0.1 µg/mL
CCC(Oc1ccc2c(-c3ccccc3)cc(=O)oc2c1)C(=O)OCc1ccccc1 (configuration not stated) | 3.8 µg/mL (≈ 9.17 µM)
CCCCC(=O)NC(=S)Nc1ccc(N2CCN(C(=O)c3ccco3)CC2)c(Cl)c1 | 0.67 µg/mL (≈ 1.49 µM)
CN1CCN(c2ccc(NC(=O)c3cccc(I)c3)cc2)CC1 | > 50 µg/mL (inactive)

Compound | IC50
CCCOc1ccccc1-c1nc(SCC(=O)OCC)n[nH]1 | 1.86 µg/mL (≈ 5.79 µM)
CC1=CC(C)(C)N2C(=O)C3(Nc4ccccc4S3)c3cc(C)cc1c32 (configuration not stated) | 16.9 µg/mL (≈ 48.6 µM)
Cc1ccc([N+](=O)[O-])cc1S(=O)(=O)Nc1cc(Br)c(O)c2ccccc12 | 11 µg/mL (≈ 25.1 µM)
Cc1ccc(-n2sc3ccccc3c2=O)cc1 | < 0.1 µg/mL
Oc1c(CN2CCN(c3ccc(F)cc3)CC2)cc(Cl)c2cccnc12 | 1.07 µg/mL (≈ 2.88 µM)
Cc1nc2ccccc2n1CC(O)COc1ccc(C2C=CCC2)cc1 (configuration not stated) | 1.22 µg/mL (≈ 3.5 µM)
COC(=O)c1c(C)oc2ccc(OC(=O)c3ccc([N+](=O)[O-])cc3)cc12 | > 50 µg/mL (inactive)
CCOC(=O)c1c(NC(=O)COc2ccc(C(C)C)cc2)sc2c1CCC2 | 2.77 µg/mL (≈ 7.15 µM)
O=C(/C=C\c1ccccc1)Nc1cccc(-c2nc3ccccc3[nH]2)c1 | 7.66 µg/mL (≈ 22.6 µM)
CCc1ccccc1NC(=O)c1cc2cc([N+](=O)[O-])cc(OC)c2oc1=O | > 50 µg/mL (inactive)
CCc1ccc(S(=O)(=O)Nc2ccc(I)cc2)cc1 | 11.7 µg/mL (≈ 30.1 µM)
CCOC(=O)Cc1ccc2c(=O)c(Oc3ccc(F)cc3)coc2c1 | 33 µg/mL (≈ 96.3 µM)
Cc1ccc(NC(=O)COc2ccc(F)cc2)cc1 | > 50 µg/mL (inactive)
C1=C(c2ccc(Oc3ccccc3)cc2)N2CCN=C2S1 | 5.23 µg/mL (≈ 17.8 µM)
C(=NN1CCN(C2c3ccccc3-c3ccccc32)CC1)c1ccncc1 | 11.2 µg/mL (≈ 31.5 µM)
Cc1ccc2nc(SCc3ccc4ccccc4c3)[nH]c2c1 | 11 µg/mL (≈ 36 µM)
CCCC1(O)CC(c2ccc(Cl)cc2)NC(c2ccc(Cl)cc2)C1C (configuration not stated) | 2.34 µg/mL (≈ 6.18 µM)
CCCc1ccc(OC(=O)c2ccc(OC)c(OC)c2)cc1 | 2.37 µg/mL (≈ 7.89 µM)
O=C1c2cccc3cccc(c23)C(=O)N1CCN1CCN(CC(O)COc2ccccc2Cl)CC1 (configuration not stated) | 2.93 µg/mL (≈ 5.93 µM)
